Laboratory results: US12121503B2, “Antiviral treatments” (priority 2006, dated 2024)
Several values for one entry are separate records, joined by “and”; a condition that tells them apart may be missing. Identical values can stand only once. Marks after values point to notes of the source that are not given here.

Assays:
[1] = test system: influenza infection; conditions: oral administration over a period of days; cited from earlier work
[2] = Plasma levels after i.v. administration in mice
[3] = Toxicity controls: uninfected mice treated in parallel; conditions: for Tox Controls Surv/Total: 21 days
[4] = test system: influenza virus; conditions: cited from earlier work
[5] = test system: Influenza A/Duck/MN/152518 (H5N1); type: in vivo, BALB/c mice
[6] = Phase I clinical study in healthy human volunteers, plasma concentration after intravenous and intramuscular administration
[7] = test system: influenza virus; conditions: cited from earlier work; remark: listed apart in the source
[8] = intramuscular, healthy human volunteers

CCC(CC)C(NC(C)=O)[C@@H]1[C@H](O)[C@@H](C(=O)O)C[C@H]1NC(=N)N (stereo partly drawn) [Peramivir, (1S,2S,3R,4R)-3-(1-Acetamido-2-ethylbutyl)-4-guanidino-2-hydroxycyclopentane-carboxylic acid]
Therapeutic effect on influenza infection in humans [1]: suboptimal therapeutic effect | Time at relatively high levels in the plasma [2]: at least 6 hours | Tox Controls Surv/Total ([3]; 3 mg/kg i.v.): 3/3 | Tox Controls Surv/Total ([3]; 10 mg/kg i.v.): 3/3 | Tox Controls Surv/Total ([3]; 20 mg/kg i.v.): 3/3 | Survival and weight of toxicity controls ([3]; i.v., run in parallel): all survived and gained weight | Tolerability in toxicity controls ([3]; i.v., run in parallel): well tolerated | Activity against the influenza virus in vitro [4]: marked activity | Infected, Treated Mice Surv/Total ([5]; 21 days): 10/10** and 5/10 | Effect on lung parameters ([5]; mouse, in vivo): moderately inhibitory | Infected animals surviving the infection ([5]; mouse, in vivo): 100% | Protection of mice (prevention of deaths, lessening of lung consolidation, inhibition of lung virus titers) ([5]; mouse, in vivo): significantly protective | half-life ([6]; human, plasma, iv): > 12 h | Kinetics of plasma concentrations [6, 8]: linear kinetics | Plasma half life [6, 8]: unusually extended | Kinetics of plasma concentrations ([6]; intravenous, healthy human volunteers): linear kinetics | Activity against the influenza virus in experimentally infected mice [7]: marked activity
